Test results: ChEMBL document CHEMBL4342409, “Recent advancements of 4-aminoquinazoline derivatives as kinase inhibitors and their applications in medicinal chemistry” (Eur J Med Chem, 2019)
pEC50, pIC50: −log10 of the molar value. Each block holds one molecule with its values, some of them ahead of it.

Key:
[1] = molecular target: T1, Epidermal growth factor receptor (Homo sapiens, UniProt P00533)
Description: Inhibition of EGFR (unknown origin)

[2] = molecular target: Receptor tyrosine-protein kinase erbB-4 (Homo sapiens, UniProt Q15303); assay: Inhibition of HER4 (unknown origin)
[3] = molecular target: T2, Proto-oncogene tyrosine-protein kinase Src (Homo sapiens, UniProt P12931); assay: Inhibition of SRC (unknown origin)
[4] = molecular target: Vascular endothelial growth factor receptor 3 (Homo sapiens, UniProt P35916); assay: Inhibition of VEGFR3 (unknown origin)
[5] = molecular target: Epidermal growth factor receptor (Homo sapiens, UniProt P00533, L858R/T790M); assay: Inhibition of human recombinant GST-tagged EGFR L858R/T790M mutant (catalytic domain 695 to end) expressed in baculovirus-infected Sf9 cells assessed as reduction in phosphorylation of polyglutamic acid/tyrosine incubated for 60 mins by ADP-Glo assay
[6] = molecular target: T1, Epidermal growth factor receptor; assay: Inhibition of human recombinant GST-tagged EGFR (catalytic domain 695 to end) expressed in baculovirus-infected Sf9 cells assessed as reduction in phosphorylation of polyglutamic acid/tyrosine incubated for 60 mins by ADP-Glo assay
[7] = Antiproliferative activity against human NHBE cells assessed as reduction in cell viability incubated for 72 hrs by MTT assay; assay type: cell-based
[8] = molecular target: Epidermal growth factor receptor (Homo sapiens, UniProt P00533, T790M); assay: Inhibition of EGFR T790M mutant (unknown origin)
[9] = molecular target: T3, Vascular endothelial growth factor receptor 2 (Homo sapiens, UniProt P35968); assay: Inhibition of human recombinant GST-tagged VEGFR2 (catalytic domain 805 to 1356 residues) expressed in Sf9 insect cells incubated for 45 mins by Kinase-Glo assay
[10] = molecular target: T3, Vascular endothelial growth factor receptor 2; assay: Inhibition of VEGFR2 in human HUVEC assessed as reduction in cell proliferation at 10 uM incubated for 72 hrs by alamarBlue assay; assay type: cell-based
[11] = molecular target: T3, Vascular endothelial growth factor receptor 2; assay: Inhibition of VEGFR2 (unknown origin)
A549 = assay: In vivo inhibition of neo-vascularisation in human A549 cells xenografted in athymic mouse at 50 mg/kg/day, po administered for 5 days measured after 24 hrs of last dose by light microscopy; assay type: functional
Human betaherpesvirus 5 = assay: Antiviral activity against recombinant HCMV AD169 infected in human foreskin fibroblasts measured after 7 days by GFP-based multi-round replication assay relative to control; assay type: functional, organism-based; settings: Human betaherpesvirus 5, AD169, 168 h
[12] = molecular target: T4, Aurora kinase A (Homo sapiens) (UniProt O14965); assay: Inhibition of Aurora A in human MCF7 cells relative to control; assay type: cell-based; settings: concentration not given here
T4 sequence (whole entry): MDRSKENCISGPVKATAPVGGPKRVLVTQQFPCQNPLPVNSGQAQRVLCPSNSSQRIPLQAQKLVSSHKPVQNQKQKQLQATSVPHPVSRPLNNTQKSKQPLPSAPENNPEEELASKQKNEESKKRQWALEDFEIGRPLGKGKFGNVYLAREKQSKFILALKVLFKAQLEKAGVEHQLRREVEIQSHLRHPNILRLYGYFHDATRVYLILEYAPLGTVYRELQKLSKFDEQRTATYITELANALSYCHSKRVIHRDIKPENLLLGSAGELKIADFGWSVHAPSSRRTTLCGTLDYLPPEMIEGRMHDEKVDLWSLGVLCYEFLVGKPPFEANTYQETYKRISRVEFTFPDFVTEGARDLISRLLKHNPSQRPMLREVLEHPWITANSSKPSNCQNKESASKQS

DU-145 = assay: Antitumor activity against human DU145 cells xenografted in CB17 SCID model mouse assessed as inhibition of tumor growth at 25 mg/kg, po administered for 54 days; assay type: functional; design: scale not given: the % may be the effect or the level left
[13] = molecular target: T2, Proto-oncogene tyrosine-protein kinase Src; assay: Inhibition of human recombinant Src expressed in baculovirus infected Sf9 insect cells assessed as reduction in phosphorylation of polyglutamic acid/tyrosine incubated for 15 mins by ELISA
[14] = Cytotoxicity against human EC1 cells assessed as reduction in cell growth at 2 nM incubated for 48 and 72 hrs by MTT assay; assay type: functional
[15] = Cytotoxicity against human HKESC1 cells assessed as reduction in cell growth at 2 nM incubated for 48 and 72 hrs by MTT assay; assay type: functional
[16] = Cytotoxicity against human HKESC2 cells assessed as reduction in cell growth at 2 nM incubated for 48 and 72 hrs by MTT assay; assay type: functional
[17] = Cytotoxicity against human KYSE10 cells assessed as reduction in cell growth at 2 nM incubated for 48 and 72 hrs by MTT assay; assay type: functional
[18] = Cytotoxicity against human SLMT1 cells assessed as reduction in cell growth at 2 nM incubated for 48 and 72 hrs by MTT assay; assay type: functional
[19] = Cytotoxicity against human Embryonic stem cells assessed as reduction in cell growth at 2 nM incubated for 48 and 72 hrs by MTT assay; assay type: functional
Plasmodium falciparum = assay: Antimalarial activity against Plasmodium falciparum 3D7 infected in human erythrocytes after 72 hrs by SYBR Green1 dye based fluorescence assay relative to control; assay type: functional, organism-based; settings: 3D7, 72 h
[20] = Antitumor activity against rat FRE-erbB2 cells xenografted in CD-1 mouse assessed as tumor growth inhibition at 50 mg/kg, po after 1 hr by ELISA relative to control; assay type: functional; settings: read-out: TGI

T3 sequence (P35968 whole entry, the tested form may be a part): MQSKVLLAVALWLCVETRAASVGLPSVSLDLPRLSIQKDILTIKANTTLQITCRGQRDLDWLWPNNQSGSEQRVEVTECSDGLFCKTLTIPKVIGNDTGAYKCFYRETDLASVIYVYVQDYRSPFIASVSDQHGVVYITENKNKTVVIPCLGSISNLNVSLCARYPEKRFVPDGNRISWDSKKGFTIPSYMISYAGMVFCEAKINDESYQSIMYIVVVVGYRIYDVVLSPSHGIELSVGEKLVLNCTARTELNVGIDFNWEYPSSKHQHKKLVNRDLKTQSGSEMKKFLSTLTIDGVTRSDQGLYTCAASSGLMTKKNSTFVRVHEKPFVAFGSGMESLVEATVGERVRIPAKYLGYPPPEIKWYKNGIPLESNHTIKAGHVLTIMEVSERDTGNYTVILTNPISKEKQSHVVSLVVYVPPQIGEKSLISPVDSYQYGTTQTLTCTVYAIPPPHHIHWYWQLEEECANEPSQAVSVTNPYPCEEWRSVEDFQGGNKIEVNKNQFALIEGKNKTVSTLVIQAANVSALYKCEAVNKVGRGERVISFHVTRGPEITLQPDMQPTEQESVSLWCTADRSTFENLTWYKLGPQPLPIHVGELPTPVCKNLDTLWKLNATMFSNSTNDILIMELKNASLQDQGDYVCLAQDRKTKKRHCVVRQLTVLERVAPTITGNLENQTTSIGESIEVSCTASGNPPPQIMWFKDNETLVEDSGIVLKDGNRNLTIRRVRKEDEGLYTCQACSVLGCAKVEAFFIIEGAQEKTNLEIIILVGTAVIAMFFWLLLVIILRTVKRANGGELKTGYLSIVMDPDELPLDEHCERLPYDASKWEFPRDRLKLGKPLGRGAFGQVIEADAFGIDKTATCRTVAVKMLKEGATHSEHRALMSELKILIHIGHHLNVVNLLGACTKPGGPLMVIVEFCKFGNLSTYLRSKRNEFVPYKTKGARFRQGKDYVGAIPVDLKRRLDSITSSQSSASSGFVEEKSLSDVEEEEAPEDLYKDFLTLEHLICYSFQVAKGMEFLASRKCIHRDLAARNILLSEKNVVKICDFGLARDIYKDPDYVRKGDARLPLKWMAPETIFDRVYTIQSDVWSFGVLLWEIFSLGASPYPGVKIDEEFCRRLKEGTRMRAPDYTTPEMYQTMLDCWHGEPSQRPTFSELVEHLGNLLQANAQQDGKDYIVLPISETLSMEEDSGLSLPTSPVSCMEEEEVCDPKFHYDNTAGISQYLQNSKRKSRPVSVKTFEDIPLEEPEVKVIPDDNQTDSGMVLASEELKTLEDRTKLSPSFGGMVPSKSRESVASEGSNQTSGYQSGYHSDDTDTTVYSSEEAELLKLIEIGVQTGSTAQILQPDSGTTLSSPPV
T1 sequence (P00533 whole entry): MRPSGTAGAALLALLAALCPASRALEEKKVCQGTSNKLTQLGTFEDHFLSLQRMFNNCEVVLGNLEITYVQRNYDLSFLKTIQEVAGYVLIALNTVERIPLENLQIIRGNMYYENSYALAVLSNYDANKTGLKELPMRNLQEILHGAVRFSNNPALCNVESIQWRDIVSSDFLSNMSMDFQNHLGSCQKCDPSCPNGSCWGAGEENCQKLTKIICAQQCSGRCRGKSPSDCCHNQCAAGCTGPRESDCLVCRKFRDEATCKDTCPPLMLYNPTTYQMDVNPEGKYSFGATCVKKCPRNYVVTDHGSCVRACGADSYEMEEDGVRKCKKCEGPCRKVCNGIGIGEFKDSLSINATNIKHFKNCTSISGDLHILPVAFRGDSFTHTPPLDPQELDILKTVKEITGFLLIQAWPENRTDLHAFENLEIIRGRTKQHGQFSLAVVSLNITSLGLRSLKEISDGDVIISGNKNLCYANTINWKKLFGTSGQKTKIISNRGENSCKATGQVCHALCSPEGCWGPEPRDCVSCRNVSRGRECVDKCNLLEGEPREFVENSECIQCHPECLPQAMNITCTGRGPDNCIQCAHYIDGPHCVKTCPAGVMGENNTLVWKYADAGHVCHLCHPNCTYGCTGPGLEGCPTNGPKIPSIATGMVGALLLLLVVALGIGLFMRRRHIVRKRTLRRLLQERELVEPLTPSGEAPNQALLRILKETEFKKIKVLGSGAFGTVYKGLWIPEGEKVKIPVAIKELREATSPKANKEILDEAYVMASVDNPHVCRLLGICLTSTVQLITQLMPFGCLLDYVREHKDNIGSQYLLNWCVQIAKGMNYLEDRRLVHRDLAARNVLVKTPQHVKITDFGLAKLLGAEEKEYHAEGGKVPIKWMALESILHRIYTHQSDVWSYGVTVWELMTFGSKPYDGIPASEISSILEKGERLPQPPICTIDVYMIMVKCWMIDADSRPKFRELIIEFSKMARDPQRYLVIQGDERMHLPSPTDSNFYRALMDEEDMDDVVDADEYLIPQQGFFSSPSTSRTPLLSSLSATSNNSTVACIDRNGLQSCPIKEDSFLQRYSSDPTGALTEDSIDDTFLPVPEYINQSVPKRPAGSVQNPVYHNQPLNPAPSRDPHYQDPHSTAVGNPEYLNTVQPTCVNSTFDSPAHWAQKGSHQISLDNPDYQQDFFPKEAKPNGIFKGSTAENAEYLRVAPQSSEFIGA
T2 sequence (P12931 2-536 limits assumed): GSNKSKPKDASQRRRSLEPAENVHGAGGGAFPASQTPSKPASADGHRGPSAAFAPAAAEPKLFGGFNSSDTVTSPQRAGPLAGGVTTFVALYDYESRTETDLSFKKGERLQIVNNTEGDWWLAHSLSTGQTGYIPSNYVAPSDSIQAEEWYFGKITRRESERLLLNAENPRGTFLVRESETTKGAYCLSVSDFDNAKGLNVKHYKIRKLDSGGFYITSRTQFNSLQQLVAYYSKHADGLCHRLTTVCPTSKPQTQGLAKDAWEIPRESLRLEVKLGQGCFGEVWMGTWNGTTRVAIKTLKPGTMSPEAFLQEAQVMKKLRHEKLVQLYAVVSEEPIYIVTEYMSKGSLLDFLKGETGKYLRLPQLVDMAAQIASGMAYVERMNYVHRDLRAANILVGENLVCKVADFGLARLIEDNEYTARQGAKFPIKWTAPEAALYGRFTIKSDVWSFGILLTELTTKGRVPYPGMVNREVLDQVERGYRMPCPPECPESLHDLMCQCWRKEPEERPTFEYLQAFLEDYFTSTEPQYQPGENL
Sequence of Receptor tyrosine-protein kinase erbB-4 (Q15303 whole entry): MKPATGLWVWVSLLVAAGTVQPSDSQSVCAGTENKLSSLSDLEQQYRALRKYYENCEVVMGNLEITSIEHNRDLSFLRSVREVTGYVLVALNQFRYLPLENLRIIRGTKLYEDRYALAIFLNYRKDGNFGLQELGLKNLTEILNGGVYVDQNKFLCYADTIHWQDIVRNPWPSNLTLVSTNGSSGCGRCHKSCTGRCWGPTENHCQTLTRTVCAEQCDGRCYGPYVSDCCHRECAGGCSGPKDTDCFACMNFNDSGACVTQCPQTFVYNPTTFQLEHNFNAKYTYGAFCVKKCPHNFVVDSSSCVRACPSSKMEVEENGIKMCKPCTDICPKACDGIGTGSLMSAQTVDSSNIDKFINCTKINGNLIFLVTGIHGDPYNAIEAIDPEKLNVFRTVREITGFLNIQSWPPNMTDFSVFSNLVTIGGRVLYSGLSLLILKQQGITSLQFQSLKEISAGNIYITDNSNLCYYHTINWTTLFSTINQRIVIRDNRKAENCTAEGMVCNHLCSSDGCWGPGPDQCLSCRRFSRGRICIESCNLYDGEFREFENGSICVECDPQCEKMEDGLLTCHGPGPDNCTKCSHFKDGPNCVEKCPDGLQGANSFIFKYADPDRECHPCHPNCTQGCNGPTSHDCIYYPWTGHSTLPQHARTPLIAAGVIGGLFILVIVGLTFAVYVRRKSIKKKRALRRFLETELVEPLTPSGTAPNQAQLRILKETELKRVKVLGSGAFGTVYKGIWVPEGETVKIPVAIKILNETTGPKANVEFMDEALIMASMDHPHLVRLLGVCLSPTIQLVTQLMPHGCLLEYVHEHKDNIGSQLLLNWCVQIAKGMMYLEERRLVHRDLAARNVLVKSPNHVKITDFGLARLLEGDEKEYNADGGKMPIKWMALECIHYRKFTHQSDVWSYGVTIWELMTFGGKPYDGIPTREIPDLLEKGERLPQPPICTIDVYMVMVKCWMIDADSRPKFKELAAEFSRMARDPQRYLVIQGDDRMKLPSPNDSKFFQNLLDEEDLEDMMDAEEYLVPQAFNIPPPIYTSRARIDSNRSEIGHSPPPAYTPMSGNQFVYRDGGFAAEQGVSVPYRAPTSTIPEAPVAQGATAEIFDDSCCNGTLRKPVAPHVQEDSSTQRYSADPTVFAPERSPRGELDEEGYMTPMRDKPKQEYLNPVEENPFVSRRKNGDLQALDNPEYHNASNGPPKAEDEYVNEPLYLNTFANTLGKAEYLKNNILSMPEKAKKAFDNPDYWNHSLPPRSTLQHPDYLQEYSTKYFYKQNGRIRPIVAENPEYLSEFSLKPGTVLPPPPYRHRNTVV

pIC50 [1]: > 8.00
pIC50 [2]: 7.00 to 7.96
pIC50 [3]: 7.00 to 7.96
pIC50 [4]: 7.00 to 7.96
Structure (SMILES): COc1cc2ncnc3c2cc1OCCCCCN(C)Cc1ccc(Br)cc1N3 [JNJ-26483327]

Structure (SMILES): C=CC(=O)Nc1ccc(Nc2ncnc3cc(OC)c(OCCN4CCOCC4)cc23)cc1
pIC50 [1]: 6.98
pIC50 [5]: 8.37
pIC50 [6]: 6.98
pIC50 [7]: < 4.47
pIC50 [8]: 8.37

pIC50 [9]: 8.30
inhibition [10]: 80 to 99.6%
Structure (SMILES): COc1cc2ncnc(-n3ncc4cc(NC(=O)Nc5ccc(C)c(Cl)c5)ccc43)c2cc1OC

pIC50 [2]: 8.40
Structure (SMILES): C[C@@H]1COC(Nc2ccc3ncnc(Nc4ccc(OCc5nccs5)c(Cl)c4)c3c2)=N1 [VARLITINIB]

pIC50 [1]: 8.70
pIC50 [11]: 6.99
Structure (SMILES): C=CC(=O)Nc1cc2c(Nc3ccc(Br)cc3F)ncnc2cc1OCCCC(=O)CN(C)C

Structure (SMILES): COc1cc2/c(=N/c3ccc(Br)cc3F)nc[nH]c2cc1OCC1CCN(C)CC1 [VANDETANIB]
inhibition in vivo at 50 mg/kg/day (A549): 63%

Structure (SMILES): C[C@H]1[C@@H](CC(=O)Nc2ccc3ncnc(Nc4ccc(Cl)c(Cl)c4)c3c2)O[C@@H]2O[C@@]3(C)CC[C@H]4[C@H](C)CC[C@@H]1[C@@]24OO3
pEC50 (Human betaherpesvirus 5): 3.68 to 3.82

inhibition [12]: 60%
Structure (SMILES): COc1cc2c(Nc3ccc(C(=O)Nc4ccccc4)cc3)ncnc2cc1O

Structure (SMILES): CN1CCN(CCOc2cc(OC3CCOCC3)c3c(Nc4c(Cl)ccc5c4OCO5)ncnc3c2)CC1 [SARACATINIB]
Activity (DU-145): 45%

pIC50 [13]: 8.30
Structure (SMILES): COc1ccc(Cl)c(Nc2ncnc3cc(OCC4CCN(C)CC4)c(OC)cc23)c1 [AZM-475271]

Structure (SMILES): CN(C)C/C=C/C(=O)Nc1cc2c(Nc3ccc(F)c(Cl)c3)ncnc2cc1O[C@H]1CCOC1 [AFATINIB]
inhibition at 0.002 µM [14]: > 95%
inhibition at 0.002 µM [15]: > 95%
inhibition at 0.002 µM [16]: > 95%
inhibition at 0.002 µM [17]: > 95%
inhibition at 0.002 µM [18]: > 95%
inhibition at 0.002 µM [19]: > 95%

Structure (SMILES): C[C@H]1[C@H](OC(=O)CCC(=O)Nc2ccc3ncnc(Nc4ccc(Cl)c(Cl)c4)c3c2)O[C@@H]2O[C@@]3(C)CC[C@H]4[C@H](C)CC[C@@H]1[C@@]24OO3
pEC50 (Plasmodium falciparum): 8.85
pEC50 (Human betaherpesvirus 5): 3.68 to 3.82

Structure (SMILES): COCC(=O)NC/C=C/c1ccc2ncnc(Nc3ccc(Oc4ccc(C)nc4)c(C)c3)c2c1 [CP-724714]
inhibition in vivo at 50 mg/kg [20]: 50%
